US20250002475A1 (EPICS THERAPEUTICS, priority 2023, published 2025)

The compounds below were run against T1, recombinant METTL3/METTL14 complex (Homo sapiens, UniProt Q86U44) (assay: METTL3/14 Scintillation Proximity Assay (SPA), RNA methyltransferase activity). Settings: 5.31 nM METTL3/14 complex, 250 nM RNA substrate, 1 μM 3H-SAM, 90 min; for compounds marked * best of the two separated forms.
T1 construct: purchased Active Motif 311970; host or cells: Sf9 cells
Assay type: biochemical

T1 sequence (Q86U44 whole entry): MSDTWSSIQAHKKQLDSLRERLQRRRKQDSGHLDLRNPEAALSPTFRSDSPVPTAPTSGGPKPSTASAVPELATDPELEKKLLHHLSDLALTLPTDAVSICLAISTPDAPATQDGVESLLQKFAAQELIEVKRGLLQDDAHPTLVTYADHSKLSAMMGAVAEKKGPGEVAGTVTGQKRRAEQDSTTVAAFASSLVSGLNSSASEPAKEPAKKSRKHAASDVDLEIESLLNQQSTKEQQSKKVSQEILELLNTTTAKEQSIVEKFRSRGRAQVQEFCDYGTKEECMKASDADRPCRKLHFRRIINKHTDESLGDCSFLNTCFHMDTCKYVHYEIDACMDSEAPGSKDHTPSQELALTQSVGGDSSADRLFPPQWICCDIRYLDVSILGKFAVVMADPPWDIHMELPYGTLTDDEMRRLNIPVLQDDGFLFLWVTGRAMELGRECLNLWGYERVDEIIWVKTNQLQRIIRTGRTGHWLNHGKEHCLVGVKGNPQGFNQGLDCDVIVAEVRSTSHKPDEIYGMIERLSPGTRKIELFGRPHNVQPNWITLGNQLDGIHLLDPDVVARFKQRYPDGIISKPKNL
T1 sequence (Q9HCE5 whole entry partner): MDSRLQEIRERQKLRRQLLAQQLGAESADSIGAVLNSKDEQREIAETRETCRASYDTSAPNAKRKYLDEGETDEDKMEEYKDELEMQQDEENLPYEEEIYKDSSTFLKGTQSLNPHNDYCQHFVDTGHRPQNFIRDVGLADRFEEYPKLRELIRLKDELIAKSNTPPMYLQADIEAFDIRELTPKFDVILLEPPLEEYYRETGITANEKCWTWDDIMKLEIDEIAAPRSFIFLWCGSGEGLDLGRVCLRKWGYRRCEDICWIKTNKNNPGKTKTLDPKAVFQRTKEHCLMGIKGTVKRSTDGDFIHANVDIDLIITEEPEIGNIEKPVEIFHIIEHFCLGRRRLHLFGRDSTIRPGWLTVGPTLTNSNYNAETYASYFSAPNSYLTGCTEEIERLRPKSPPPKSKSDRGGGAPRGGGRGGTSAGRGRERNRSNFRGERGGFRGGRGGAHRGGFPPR

`COc1cc(-c2cn(Cc3n[nH]c(N4CCC[C@@H](NCC5CCC5)C4)cc3=O)nn2)c2cn[nH]c2c1` [Compound 039, (R)-6-(3-((cyclobutylmethyl)amino)piperidin-1-yl)-3-((4-(6-methoxy-1H-indazol-4-yl)-1H-1,2,3-triazol-1-yl)methyl)pyridazin-4(1H)-one] and `COc1cnnc(-c2cn(Cc3ccc(N4CCC[C@@H](NCC5CCC5)C4)cc3)nn2)c1` [Compound 136, (R)-N-(cyclobutylmethyl)-1-(4-((4-(5-methoxypyridazin-3-yl)-1H-1,2,3-triazol-1-yl)methyl)phenyl)piperidin-3-amine] cannot be ordered by IC50: ≤ 50 nM for the first, ≤ 50 nM for the second.

`COc1cnc(C)c(-c2cn(C(C)n3ccc(N4CCC[C@@H](NCC5CCC5)C4)cc3=O)nn2)c1` (stereo partly drawn) [Compound 114, 4-((R)-3-((cyclobutylmethyl)amino)piperidin-1-yl)-1-(1-(4-(5-methoxy-2-methylpyridin-3-yl)-1H-1,2,3-triazol-1-yl)ethyl)pyridin-2(1H)-one] and `CC(n1cc(-c2cncc3[nH]ncc23)nn1)n1ccc(N2CCC[C@@H](NCC3CCC3)C2)cc1=O` (some centres unmarked) [Compound 147] cannot be ordered by IC50: ≤ 50 nM for the first, ≤ 50 nM for the second.

`COc1cncc(-c2cn(C3(c4ccc(N5CCC[C@@H](NCC6CCC6)C5)nn4)CC3)nn2)c1` [Compound 115, (R)-N-(cyclobutylmethyl)-1-(6-(1-(4-(5-methoxypyridin-3-yl)-1H-1,2,3-triazol-1-yl)cyclopropyl)pyridazin-3-yl)piperidin-3-amine] and `COc1cncc(NC(=O)C(C)c2ccc(N3CCC[C@@H](NCC4CCC4)C3)nn2)c1` (stereo partly drawn) [Compound 141, 2-(6-((R)-3-((cyclobutylmethyl)amino)piperidin-1-yl)pyridazin-3-yl)-N-(5-methoxypyridin-3-yl)propanamide] cannot be ordered by IC50: ≤ 50 nM for the first, 50 to 500 nM for the second.

`COc1cnnc(-c2cn(Cc3ccc(N4CCC[C@@H](NCC5CCC5)C4)cn3)nn2)c1` [Compound 118, (R)-N-(cyclobutylmethyl)-1-(6-((4-(5-methoxypyridazin-3-yl)-1H-1,2,3-triazol-1-yl)methyl)pyridin-3-yl)piperidin-3-amine] and `O=c1cc(-c2cn(Cc3ccc(N4CCC[C@@H](NCC5CCC5)C4)cn3)nn2)nc2ccccn12` [Compound 127, (R)-2-(1-((5-(3-((cyclobutylmethyl)amino)piperidin-1-yl)pyridin-2-yl)methyl)-1H-1,2,3-triazol-4-yl)-4H-pyrido[1,2-a]pyrimidin-4-one] cannot be ordered by IC50: ≤ 50 nM for the first, ≤ 50 nM for the second.

`COc1cncc(-c2nnc(C(C)n3ccc(N4CCC[C@@H](NCC5CCC5)C4)cc3=O)s2)c1` (stereo partly drawn) [Compound 119, 4-((R)-3-((cyclobutylmethyl)amino)piperidin-1-yl)-1-(1-(5-(5-methoxypyridin-3-yl)-1,3,4-thiadiazol-2-yl)ethyl)pyridin-2(1H)-one] and `COc1cncc(-c2noc(C(C)n3ccc(N4CCC[C@@H](NCC5CCC5)C4)cc3=O)n2)c1` (stereo partly drawn) [Compound 125, 4-((R)-3-((cyclobutylmethyl)amino)piperidin-1-yl)-1-(1-(3-(5-methoxypyridin-3-yl)-1,2,4-oxadiazol-5-yl)ethyl)pyridin-2(1H)-one] cannot be ordered by IC50: ≤ 50 nM for the first, 50 to 500 nM for the second.

`CNc1cncc(-c2cn(C(C)n3ccc(N4CCC[C@@H](NCC5CCC5)C4)cc3=O)nn2)n1` (stereo partly drawn) [Compound 121, 4-((R)-3-((cyclobutylmethyl)amino)piperidin-1-yl)-1-(1-(4-(6-(methylamino)pyrazin-2-yl)-1H-1,2,3-triazol-1-yl)ethyl)pyridin-2(1H)-one] and `CC(n1cc(-c2cncc(OC(F)F)c2)nn1)n1ccc(N2CCC[C@@H](NCC3CCC3)C2)cc1=O` (some centres unmarked) [Compound 131] cannot be ordered by IC50: ≤ 50 nM for the first, ≤ 50 nM for the second.

`O=c1cc(-c2cn(Cc3ccc(N4CCC[C@@H](NCC5CCC5)C4)cc3)nn2)nc2ccccn12` [Compound 128, (R)-2-(1-(4-(3-((cyclobutylmethyl)amino)piperidin-1-yl)benzyl)-1H-1,2,3-triazol-4-yl)-4H-pyrido[1,2-a]pyrimidin-4-one] and `CC(C(=O)Nc1cc(=O)n2ccccc2n1)c1ccc(N2CCC[C@@H](NCC3CCC3)C2)cn1` (stereo partly drawn) [Compound 265, 2-(5-((R)-3-((cyclobutylmethyl)amino)piperidin-1-yl)pyridin-2-yl)-N-(4-oxo-4H-pyrido[1,2-a]pyrimidin-2-yl)propanamide] cannot be ordered by IC50: ≤ 50 nM for the first, ≤ 50 nM for the second.

`COc1cncc(-c2nnn(Cc3ccc(N4CCC[C@@H](NCC5CCC5)C4)cc3)n2)c1` [Compound 145, (R)-N-(cyclobutylmethyl)-1-(4-((5-(5-methoxypyridin-3-yl)-2H-tetrazol-2-yl)methyl)phenyl)piperidin-3-amine] and `C=C(c1ccc(N2CCC[C@@H](NCC3CCC3)C2)cc1)n1cc(-c2cncc(N(C)C)c2)nn1` [Compound 155, (R)-5-(1-(1-(4-(3-((cyclobutylmethyl)amino)piperidin-1-yl)phenyl)vinyl)-1H-1,2,3-triazol-4-yl)-N,N-dimethylpyridin-3-amine] cannot be ordered by IC50: 50 to 500 nM for the first, ≤ 50 nM for the second.

`CC(C(=O)Nc1cncc(N(C)C)c1)c1ccc(N2CCC[C@@H](NCC3CCC3)C2)nn1` (stereo partly drawn) [Compound 157, 2-(6-((R)-3-((cyclobutylmethyl)amino)piperidin-1-yl)pyridazin-3-yl)-N-(5-(dimethylamino)pyridin-3-yl)propanamide] and `CC(C(=O)Nc1cncc(N2CCCC2)c1)c1ccc(N2CCC[C@@H](NCC3CC3)C2)nn1` (stereo partly drawn) [Compound 251, 2-(6-((R)-3-((cyclopropylmethyl)amino)piperidin-1-Yl)pyridazin-3-yl)-N-(5-(pyrrolidin-1-yl)pyridin-3-yl)propanamide] cannot be ordered by IC50: 50 to 500 nM for the first, ≤ 50 nM for the second.

`Cc1cc(N2CCC[C@@H](NCC3CC3)C2)cc(=O)n1Cn1cc(-c2cncc(N(C)C)c2)nn1` [Compound 163] and `COc1cncc(-c2cn(C(C)c3ccc(N4CCC[C@@H](NCC5CC5)C4)cn3)nn2)n1` (stereo partly drawn) [Compound 261, (3R)—N-(cyclopropylmethyl)-1-(6-(1-(4-(6-methoxypyrazin-2-yl)-1H-1,2,3-triazol-1-yl)ethyl)pyridin-3-yl)piperidin-3-amine] cannot be ordered by IC50: ≤ 50 nM for the first, ≤ 50 nM for the second.

`O=C(Cc1ccc(N2CCC[C@@H](NCC3CCC3)C2)cn1)Nc1cncc(N2CCCC2)c1` [Compound 271, (R)-2-(5-(3-((cyclobutylmethyl)amino)piperidin-1-yl)pyridin-2-yl)-N-(5-(pyrrolidin-1-yl)pyridin-3-yl)acetamide] and `O=C(Cc1ccc(N2CCC[C@@H](NCC3CCC3)C2)cn1)Nc1cncc(N2CCCC2)n1` [Compound 277, (R)-2-(5-(3-((cyclobutylmethyl)amino)piperidin-1-yl)pyridin-2-yl)-N-(6-(pyrrolidin-1-yl)pyrazin-2-yl)acetamide] cannot be ordered by IC50: ≤ 50 nM for the first, ≤ 50 nM for the second.

`COc1cc(NC(=O)C2(c3ccc(N4CCC[C@@H](NCC5CCC5)C4)cn3)COC2)c2cn[nH]c2c1` [Compound 273, (R)-3-(5-(3-((cyclobutylmethyl)amino)piperidin-1-yl)pyridin-2-yl)-N-(6-methoxy-1H-indazol-4-yl)oxetane-3-carboxamide] and `O=C(Nc1cnc2[nH]ccc2c1)C1(c2ccc(N3CCC[C@@H](NCC4CCC4)C3)cn2)COC1` [Compound 299, (R)-3-(5-(3-((cyclobutylmethyl)amino)piperidin-1-yl)pyridin-2-yl)-N-(1H-pyrrolo[2,3-b]pyridin-5-yl)oxetane-3-carboxamide] cannot be ordered by IC50: ≤ 50 nM for the first, 50 to 500 nM for the second.

`CC(C(=O)Nc1cncc(N2CCCC2)n1)c1ccc(N2CCC[C@@H](NCC3CCC3)C2)cn1` (stereo partly drawn) [Compound 274, 2-(5-((R)-3-((cyclobutylmethyl)amino)piperidin-1-yl)pyridin-2-yl)-N-(6-(pyrrolidin-1-yl)pyrazin-2-yl)propanamide] and `CC(C(=O)Nc1cc(=O)n2ccccc2n1)c1ccc(N2CCC[C@@H](NCC3CCC3)C2)nn1` (stereo partly drawn) [Compound 275, 2-(6-((R)-3-((cyclobutylmethyl)amino)piperidin-1-yl)pyridazin-3-yl)-N-(4-oxo-4H-pyrido[1,2-a]pyrimidin-2-yl)propanamide] cannot be ordered by IC50: ≤ 50 nM for the first, 50 to 500 nM for the second.

`O=C(Nc1cc2ccccc2c(=O)[nH]1)C1(c2ccc(N3CCC[C@@H](NCC4CCC4)C3)cn2)COC1` [Compound 302, (R)-3-(5-(3-((cyclobutylmethyl)amino)piperidin-1-yl)pyridin-2-yl)-N-(1-oxo-1,2-dihydroisoquinolin-3-yl)oxetane-3-carboxamide] and `Cn1c(N2CCCC2)cc(-c2cn(C3(c4ccc(N5CCC[C@@H](NCC6CC6)C5)cn4)COC3)nn2)cc1=O` [Compound 314, (R)-4-(1-(3-(5-(3-((cyclopropylmethyl)amino)piperidin-1-yl)pyridin-2-yl)oxetan-3-yl)-1H-1,2,3-triazol-4-yl)-1-methyl-6-(pyrrolidin-1-yl)pyridin-2(1H)-one] cannot be ordered by IC50: ≤ 50 nM for the first, ≤ 50 nM for the second.

These compounds were tested on Kasumi-1 cells (assay: Kasumi-1 cellular viability assay (ATP-Lite, 72 h)). Settings: Homo sapiens, ATP-Lite luminescence, % viability relative to DMSO.
Assay type: cell-based
Protocol: Kasumi-1 cell line was purchased from ATCC (ATCC® CRL2724™). Cells were isolated from the peripheral blood of a child with acute myeloid leukemia (AML FAB M2) (in 2nd relapse after bone marrow transplantation) in 1989. Most cells are round. Kasumi-1 cells are observed to grow individually or in small clumps in suspension.
Kasumi-1 cells are cultured in RPMI-1640 (Gibco A10491-01) containing 10% heat-inactivated and 0.22 μm filtered FBS (Gibco 10270-106) at a density of 3E+5 and 3E+6 viable cell/mL following the certificate of analysis.
Cellular viability assay: Kasumi-1 cells were plated (50 μL) in 96-well cell culture microplates (PS, F-Bottom black, Cellstar, Greiner 655086) at final concentration of 15000 cells/well. The compounds of the invention were dissolved in DMSO, and a titration curve was generated at 1000× final concentration. Compounds were then diluted 500× in tissue culture medium (RPMI-1640, 10% FBS). Then 50 μl of test compound were added to Kasumi-1 cells in a final DMSO concentration of 0.1%, final volume 100 μl. A gas permeable sealing membrane was applied to the plate to prevent evaporation (Breathe-Easy sealing membrane, Sigma Z380059-1PK) and cells were incubated for 72 h at 37° C., 5% CO2, 80% RH. After 72h of treatment, the plates were taken out of the incubator and left for a few minutes at room temperature. 100 μl of the reconstituted reagent ATP-Lite One Step (Perkin Elmer, 6016739) was added to each well. The plates were shaken for 2 min at 700 rpm and placed in the dark for 10 minutes at room temperature before measurement of luminescence intensity with Envision instrument. The raw data were expressed in RLU. Results were expressed in % of viability relative to DMSO control and an IC50 was calculated based on the concentration-response profile of individual compounds.

`COc1cc(-c2cn(Cc3n[nH]c(N4CCC[C@@H](NCC5CCC5)C4)cc3=O)nn2)c2cn[nH]c2c1` [Compound 039, (R)-6-(3-((cyclobutylmethyl)amino)piperidin-1-yl)-3-((4-(6-methoxy-1H-indazol-4-yl)-1H-1,2,3-triazol-1-yl)methyl)pyridazin-4(1H)-one] was tested, and the IC50 was > 5000 nM.
